Values quoted from earlier work in patent publication US12324827B2, “Combination therapy for the treatment of migraines” (The University of Chicago, priority 2019, dated 2025).

Experiments:
spreading depression = details: SD from KCl; pretreatment; cited from earlier work
[1] = system: trigeminal system neurons; details: in vivo; cited from earlier work

CC1(C)O[C@@H]2[C@@H](CO[C@@]3(COS(N)(=O)=O)OC(C)(C)O[C@@H]23)O1 [topiramate, reference compound]
protection against SD over sham treatment (spreading depression): no more than a two-fold level of protection

TEV-48125: CGRP-mAb fremanezumab, humanized monoclonal anti-CGRP antibody
CSD-based activation of Aδ fibers and C-fiber afferents in the trigeminal ganglion [1]: reduce CSD-based activation of Aδ fibers but not activation of C-fiber afferents
activation and sensitization of high threshold trigeminal system neurons after CSD [1]: inhibited activation and sensitization
direct inhibition of CSD [1]: did not directly inhibit CSD
wide dynamic range neurons of the caudal trigeminal nucleus [1]: had no effect
